What all share (type): physicochemical
The nature of series [1]: Stability study of influence factors (high temperature, high humidity, light). The note with it: for Stability under influence factors (conclusion in words): photostability, high humidity and high temperature study. As for the experimental part:
Stability study on the mentioned polymorph in Example 1 was performed in high temperature, high humidity and light conditions to study the influence factors.

Series [2] is described as follows: Repose angle by fixed funnel method (flowability). The text has this:
Repeated the method of patent CN200710094131.0 to obtain fine loose allisartan isoproxil powder (referred to as literature crystal), measured the response angle by fixed funnel method.

Series [3] can be described thus: Observation of electrostatic phenomenon of the crystal. The note with it: compared with the crystal disclosed. As for the experimental part:
Added 33 ml of isopropanol and 66 ml of n-heptane in the remainder (allisartan isoproxil crude), heated to 76° C. and stirred for 2 h, then cooled to 60° C. and stirred for 1 h. Cooled the system slowly to 0° C., continued to stir for 3 h. Filtered, and washed the filter cake with n-heptane.

The nature of series [4]: Bulk density by cylinder knocking method.
[5] abbreviates: high humidity test 25° C., RH 92.5%, day 0.
[6] abbreviates: high humidity test 25° C., RH 92.5%, day 5.
Where [7] appears, read: high humidity test 25° C., RH 92.5%, day 10.
Setting [8] is: high temperature test 60° C., day 0.
[9] abbreviates: high temperature test 60° C., day 5.
Setting [10] is: high temperature test 60° C., day 10.
[11] abbreviates: photostability test 4500lx ± 500lx, day 0.
[12] abbreviates: photostability test 4500lx ± 500lx, day 5.
The mark [13] stands for this setting: photostability test 4500lx ± 500lx, day 10.

Molecules are shown by their SMILES.

As to `CCCCc1nc(Cl)c(C(=O)OCOC(=O)OC(C)C)n1Cc1ccc(-c2ccccc2-c2nnn[nH]2)cc1` [Example 1, 2-butyl-4-chloro-1-[2′-(1H-tetrazol-5-yl)-1, 1′-biphenyl-methyl]-imidazole-5-carboxylic acid, 1-[(isopropoxy)-carbonyloxy]methyl ester], the Sum of impurities came to 0.39% in series [1] (setting [5]); 0.37% in series [1] (setting [6]); 0.38% in series [1] (setting [7]); 0.39% in series [1] (setting [8]); 0.39% in series [1] (setting [9]); 0.39% in series [1] (setting [10]). Also, the Sum of impurities in series [1] (setting [11]) was determined as 0.39%; in series [1] (setting [12]), 0.37%; in series [1] (setting [13]), 0.38%. For the same molecule, the Weight gained in series [1] (setting [5]), in series [1] (setting [6]), in series [1] (setting [7]), in series [1] (setting [8]), in series [1] (setting [9]) and in series [1] (setting [10]) was 0% throughout. For the same molecule, the Weight gained in series [1] (setting [11]), in series [1] (setting [12]) and in series [1] (setting [13]) was 0% throughout. The “Stability under influence factors (conclusion in words)” value (from here on “Stability under influence factors”) in series [1] was “remained stable”. The Repose angle in series [2] is reported as 34-36 °. Moreover, the Electrostatic phenomenon result in series [3] is reported as “does not have obvious electrostatic phenomenon”. In series [4], this molecule displayed a Bulk density of 0.75 g/mL.
On to `CCCCc1nc(Cl)c(C(=O)OCOC(=O)OC(C)C)n1Cc1ccc(-c2ccccc2-c2nnn[nH]2)cc1` [Example 2, 2-butyl-4-chloro-1-[2′-(1H-tetrazol-5-yl)-1, 1′-biphenyl-methyl]-imidazole-5-carboxylic acid, 1-[(isopropoxy)-carbonyloxy]methyl ester], for which the “Stability under influence factors” value in series [1] was “same result with that of Example 1”. Besides, the Repose angle in series [2] is on record as 35-37 °. The molecule also had a Bulk density in series [4] of 0.73 g/mL.
For `CCCCc1nc(Cl)c(C(=O)OCOC(=O)OC(C)C)n1Cc1ccc(-c2ccccc2-c2nnn[nH]2)cc1` [Example 3, 2-butyl-4-chloro-1-[2′-(1H-tetrazol-5-yl)-1, 1′-biphenyl-methyl]-imidazole-5-carboxylic acid, 1-[(isopropoxy)-carbonyloxy]methyl ester] the same measures were “same result with that of Example 1”, 33-35 ° and 0.77 g/mL.
Consider `CCCCc1nc(Cl)c(C(=O)OCOC(=O)OC(C)C)n1Cc1ccc(-c2ccccc2-c2nnn[nH]2)cc1` [Example 4, 2-butyl-4-chloro-1-[2′-(1H-tetrazol-5-yl)-1, 1′-biphenyl-methyl]-imidazole-5-carboxylic acid, 1-[(isopropoxy)-carbonyloxy]methyl ester], for which the “Stability under influence factors” value in series [1] was “same result with that of Example 1”. Moreover, the Repose angle in series [2] is 35-38 °. Also, the Bulk density in series [4] stood at 0.77 g/mL.
With `CCCCc1nc(Cl)c(C(=O)OCOC(=O)OC(C)C)n1Cc1ccc(-c2ccccc2-c2nnn[nH]2)cc1` [Literature crystal, 2-butyl-4-chloro-1-[2′-(1H-tetrazol-5-yl)-1, 1′-biphenyl-methyl]-imidazole-5-carboxylic acid, 1-[(isopropoxy)-carbonyloxy]methyl ester, reference compound], the Repose angle in series [2] is listed as 48-53 °. This molecule also registered a Bulk density in series [4] of 0.51 g/mL.

The values above are taken from patent publication US10100039B2, “Allisartan isoproxil polymorph, its preparation method and pharmaceutical” (SHENZHEN SALUBRIS PHARMACEUTICALS CO., LTD, priority 2014, dated 2018).
